Experimental data taken from article PMC9983627 (Drugs in Context, 2023).

Columns and labels:
Experiment in all cases: receptor-ligand binding
[1] = target: 5-HT2A (Homo sapiens, UniProt P28223)
[2] = target: T1, 5-HT2C (Homo sapiens, UniProt P28335)
T1 sequence (P28335 33-458): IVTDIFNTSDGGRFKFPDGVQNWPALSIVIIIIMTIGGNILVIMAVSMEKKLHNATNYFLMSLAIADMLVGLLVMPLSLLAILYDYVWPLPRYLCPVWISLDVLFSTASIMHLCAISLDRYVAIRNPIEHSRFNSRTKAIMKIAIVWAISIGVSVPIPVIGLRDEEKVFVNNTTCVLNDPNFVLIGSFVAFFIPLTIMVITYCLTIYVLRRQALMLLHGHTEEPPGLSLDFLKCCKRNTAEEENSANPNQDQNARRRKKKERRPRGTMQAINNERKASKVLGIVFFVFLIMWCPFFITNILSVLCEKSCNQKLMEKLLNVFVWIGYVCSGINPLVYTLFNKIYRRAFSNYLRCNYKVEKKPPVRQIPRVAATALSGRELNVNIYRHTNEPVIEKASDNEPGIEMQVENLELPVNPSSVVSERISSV

[3] = target: h5-HT4B (Homo sapiens, UniProt Q13639)
[4] = target: Human D2 (Homo sapiens, UniProt P14416); conditions: read-out: Ki (μM) / Human D2
[5] = target: Rat D2 (Rattus norvegicus, UniProt P61169); conditions: read-out: Ki (μM) / Rat D2
[6] = target: 5-HT2B (Homo sapiens, UniProt P41595)
[7] = target: T2, hD4 (Homo sapiens, UniProt P21917); conditions: given as a range
T2 sequence (P21917 1-419): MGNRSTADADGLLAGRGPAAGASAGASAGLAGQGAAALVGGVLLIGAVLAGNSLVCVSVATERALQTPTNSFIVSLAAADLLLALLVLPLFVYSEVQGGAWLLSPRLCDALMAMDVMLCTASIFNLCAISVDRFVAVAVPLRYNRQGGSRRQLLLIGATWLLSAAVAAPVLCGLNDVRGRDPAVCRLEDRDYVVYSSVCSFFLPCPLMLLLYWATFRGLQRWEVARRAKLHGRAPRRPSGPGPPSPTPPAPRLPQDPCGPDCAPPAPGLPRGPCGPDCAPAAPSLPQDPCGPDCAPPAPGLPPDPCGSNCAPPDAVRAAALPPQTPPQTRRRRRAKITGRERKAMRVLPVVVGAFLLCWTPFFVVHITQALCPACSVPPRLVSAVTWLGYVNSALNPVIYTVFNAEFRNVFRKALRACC

[8] = target: T3, m5-HT3 (Mus musculus, UniProt P23979); conditions: given as a range
T3 sequence (P23979 24-489): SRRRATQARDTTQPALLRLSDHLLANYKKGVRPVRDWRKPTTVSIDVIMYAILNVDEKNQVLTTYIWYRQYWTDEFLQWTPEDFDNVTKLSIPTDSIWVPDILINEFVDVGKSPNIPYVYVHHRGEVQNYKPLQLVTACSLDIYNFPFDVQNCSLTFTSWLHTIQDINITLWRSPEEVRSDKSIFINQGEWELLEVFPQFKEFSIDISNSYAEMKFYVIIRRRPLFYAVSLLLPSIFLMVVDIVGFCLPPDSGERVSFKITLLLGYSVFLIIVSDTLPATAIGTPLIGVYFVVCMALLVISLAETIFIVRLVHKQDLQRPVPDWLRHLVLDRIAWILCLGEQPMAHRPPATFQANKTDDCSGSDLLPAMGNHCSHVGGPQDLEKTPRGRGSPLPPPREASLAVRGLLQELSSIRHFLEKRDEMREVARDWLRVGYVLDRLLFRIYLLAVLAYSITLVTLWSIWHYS

Chain of Human D2 (P14416 whole entry): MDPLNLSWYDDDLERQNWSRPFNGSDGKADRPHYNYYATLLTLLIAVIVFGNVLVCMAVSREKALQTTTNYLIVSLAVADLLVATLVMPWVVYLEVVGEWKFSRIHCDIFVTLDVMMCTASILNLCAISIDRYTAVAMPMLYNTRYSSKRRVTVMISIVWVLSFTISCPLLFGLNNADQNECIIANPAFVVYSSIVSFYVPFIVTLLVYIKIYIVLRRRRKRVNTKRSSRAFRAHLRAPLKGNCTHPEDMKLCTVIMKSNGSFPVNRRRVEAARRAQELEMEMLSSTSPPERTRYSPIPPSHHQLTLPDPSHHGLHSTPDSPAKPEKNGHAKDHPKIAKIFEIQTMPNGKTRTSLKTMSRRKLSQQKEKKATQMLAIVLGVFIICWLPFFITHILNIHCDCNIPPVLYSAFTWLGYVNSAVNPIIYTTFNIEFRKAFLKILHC
Chain of 5-HT2A (P28223 whole entry): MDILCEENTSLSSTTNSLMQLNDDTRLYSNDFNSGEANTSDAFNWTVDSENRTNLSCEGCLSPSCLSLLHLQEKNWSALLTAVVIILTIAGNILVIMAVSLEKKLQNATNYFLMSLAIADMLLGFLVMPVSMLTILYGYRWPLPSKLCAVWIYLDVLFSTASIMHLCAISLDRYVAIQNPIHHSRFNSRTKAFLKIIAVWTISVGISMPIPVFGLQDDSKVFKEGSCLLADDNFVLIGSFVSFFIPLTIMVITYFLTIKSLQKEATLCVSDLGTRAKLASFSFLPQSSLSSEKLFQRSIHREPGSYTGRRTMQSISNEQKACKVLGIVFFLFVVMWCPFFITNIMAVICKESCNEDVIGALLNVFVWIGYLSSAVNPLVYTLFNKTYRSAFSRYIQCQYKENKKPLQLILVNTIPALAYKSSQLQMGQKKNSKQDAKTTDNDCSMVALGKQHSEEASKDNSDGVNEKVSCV
Chain of Rat D2 (P61169 whole entry): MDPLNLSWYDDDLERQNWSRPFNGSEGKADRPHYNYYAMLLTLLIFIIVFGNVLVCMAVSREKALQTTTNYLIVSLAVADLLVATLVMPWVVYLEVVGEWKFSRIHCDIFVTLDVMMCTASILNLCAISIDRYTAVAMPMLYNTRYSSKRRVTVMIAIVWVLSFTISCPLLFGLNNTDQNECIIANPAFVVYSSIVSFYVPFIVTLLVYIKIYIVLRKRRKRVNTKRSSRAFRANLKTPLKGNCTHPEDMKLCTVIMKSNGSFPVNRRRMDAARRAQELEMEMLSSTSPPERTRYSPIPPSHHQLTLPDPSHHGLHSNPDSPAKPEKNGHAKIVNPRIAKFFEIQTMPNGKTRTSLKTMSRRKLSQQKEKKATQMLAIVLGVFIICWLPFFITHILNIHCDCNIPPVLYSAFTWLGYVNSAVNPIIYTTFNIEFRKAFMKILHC
Chain of 5-HT2B (P41595 whole entry): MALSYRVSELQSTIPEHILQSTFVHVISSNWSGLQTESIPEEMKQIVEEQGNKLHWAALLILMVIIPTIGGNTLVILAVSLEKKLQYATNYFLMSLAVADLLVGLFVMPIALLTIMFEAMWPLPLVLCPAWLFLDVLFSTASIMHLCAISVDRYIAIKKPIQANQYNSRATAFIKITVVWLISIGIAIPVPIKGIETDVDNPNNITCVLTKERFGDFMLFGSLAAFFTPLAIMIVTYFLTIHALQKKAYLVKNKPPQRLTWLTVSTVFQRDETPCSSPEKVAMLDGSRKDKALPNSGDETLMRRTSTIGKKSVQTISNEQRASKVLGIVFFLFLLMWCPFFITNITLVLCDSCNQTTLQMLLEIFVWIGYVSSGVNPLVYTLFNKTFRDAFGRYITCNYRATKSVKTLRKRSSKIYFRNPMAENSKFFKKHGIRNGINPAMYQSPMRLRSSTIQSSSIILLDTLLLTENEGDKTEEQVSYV
Chain of h5-HT4B (Q13639 whole entry): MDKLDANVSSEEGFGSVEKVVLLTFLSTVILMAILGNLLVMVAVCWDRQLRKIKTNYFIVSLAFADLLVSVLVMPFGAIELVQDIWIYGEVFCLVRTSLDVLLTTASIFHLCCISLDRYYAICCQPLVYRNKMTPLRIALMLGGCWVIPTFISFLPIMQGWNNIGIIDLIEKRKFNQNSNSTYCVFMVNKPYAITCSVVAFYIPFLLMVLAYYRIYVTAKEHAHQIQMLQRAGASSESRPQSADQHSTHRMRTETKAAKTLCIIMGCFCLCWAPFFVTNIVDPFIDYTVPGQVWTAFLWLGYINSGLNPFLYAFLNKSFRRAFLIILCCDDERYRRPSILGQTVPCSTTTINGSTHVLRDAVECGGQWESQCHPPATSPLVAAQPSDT

| Ki [1] [µM] | Ki [2] [µM] | Ki [3] [nM] | Ki [4] [µM] | Ki [5] [µM] | Ki [6] [µM] | Ki [7] [nM] | Ki [8] [µM] | SMILES |
| --- | --- | --- | --- | --- | --- | --- | --- | --- |
| 136 | 211 | 74 | 235 | 138 | 10 |  |  | Nc1c(Cl)cc(C(=O)NC2CCN(CCC(=O)O)CC2)c2c1CCO2 [R107504] |
| 30 | 41 |  | 14 | 6 |  | 1600 to 2400 | 3.5 to 3.8 | COCCCN1CCC(NC(=O)c2cc(Cl)c(N)c3c2OCC3)CC1 [Prucalopride] |
